# Source: US20070066682A1, “Arylalkylamine vanadium (V) salts for the treatment and/or prevention of Diabetes mellitus” (priority 2005, published 2007)
# “Also recorded” adds a separate entry of the source.
# Key:
# [1] = test system: isolated mouse adipocytes; experiment: Glucose transport (2-DG) in isolated mouse adipocytes; format: cell-based; conditions: 100 μM
# Method: Adipose cells from FVB mice were incubated for 45 minutes in basal conditions (Basal) or in the presence of 100 nM insulin (Ins), and different concentrations of hexaquis(benzylammonium) decavanadate (B6V10) in the absence or in the presence of 1 mM semicarbazide (SCZ) and thereafter, 2-DG transport was measured over 5 min.
# [2] = test system: isolated rat adipocytes; experiment: Glucose transport (2-deoxyglucose uptake) in isolated rat adipocytes; format: cell-based; conditions: for stimulation of glucose transport in the presence of semicarbazide: 1 mM semicarbazide; for stimulation of glucose transport in the presence of semicarbazide / stimulation of glucose transport (2-DG uptake): dihydrate; for stimulation of glucose transport (2-DG uptake): 45 min incubation
# Method: In order to determine whether salts formed by vanadate and benzylamine could produce an insulin mimetic effect, the effect of increasing concentrations of hexaquis(benzylammonium) decavanadate on glucose transport activity in isolated rat adipocytes was tested. […] In similar assays, the activity of hexaquis(benzylammonium) decavanadate, pentaquis(benzylammonium) decavanadate and tetraquis(benzylammonium) decavanadate on glucose transport activity in isolated rat adipocytes were analyzed.
# To determine the possible insulin mimetic effect of certain vanadium arylalkylamines, the capacity of these compounds to enhance glucose transport in isolated rat adipocytes was tested. Adipose cells from Wistar rats were incubated for 45 minutes in basal conditions (Basal) or in the presence of 100 nM insulin (Ins), and different concentrations of. hexaquis(benzylammonium) decavanadate (B6V10) in the absence or in the presence of 1 mM semicarbazide (SCZ). Subsequently, 2-DG transport was measured over a 5 min. interval.
# The effects of the three tested compounds (B6V10, B5V10 and B4V10) were compared. Adipose cells from Wistar rats were incubated for 45 minutes in basal conditions (Basal) or in the presence of 100 nM insulin (Ins), and different concentrations of. decavanadate (V10), hexaquis(benzylammonium) decavanadate (B6V10), pentaquis(benzylammonium) decavanadate (B5V10) or tetraquis(benzylammonium) decavanadate (B4V10) in the absence or in the presence of 1 mM semicarbazide (SCZ). 2-DG transport was measured over 5 min. intervals. […]
# (§1) The effects of incubation with semicarbazide or phosphatidylinositol 3-kinase inhibitors were also investigated. Adipose cells were incubated with B6V10 (25 μM, 45 min) in the absence or presence of wortmannin (2 μM, 45 min), LY294002 (10 μM, 45 min) or semicarbazide (1 mM, 45 min) and thereafter 2-deoxyglucose uptake was determined during 5 min.
# [3] = test system: db/db mice; experiment: Chronic treatment of obese diabetic db/db mice, glycemia; format: in vivo, mouse
# Method: Male Wistar rats weighting 180-220 g were purchased from Harlan (Interfauna Ibèrica S.A., Spain). Diabetes was induced by a single intraperitoneal injection of a freshly prepared solution of streptozotocin (in some studies the dose was 45 mg/kg body weight and in some others 100 mg/kg body weight dissolved in 50 mM citrate buffer, pH 4.5). Only diabetic animals with glycemia above 300 mg/dl were used. The animals were housed in animal quarters at 22° C., with a 12 h light/12 h dark cycle and were fed ad libitum. All procedures used were approved by the animal ethical committee of the University of Barcelona, Spain. Male mice C57 BL/Ks bearing the db/db mutation (Jackson Laboratories, Bar Harbor, Me.) were purchased from Harlan France (Gannat, France). C57BL/6J male mice were assigned for 16 weeks to very high-fat diet containing (in kcal): 72% from fat, 28% from proteins and <1% from carbohydrates (Burcelin et al., 2002, Am. J. Physiol. Endocrinol. Metab 282: E834-E842).
# [4] = test system: adipocyte lipolysis; experiment: Adipocyte lipolysis; format: cell-based
# [5] = test system: protein kinase B; experiment: Protein kinase B phosphorylation in isolated rat adipocytes; format: cell-based
# Method: (§2) Isolated fat cells were disrupted for total membrane preparation by hypo-osmotic lysis in a 20 mM HES buffer and an antiprotease and antiphosphatase cocktail as reported by Abella et al. (2003, Diabetes 52: 1004-1013). Protein concentrations were determined by the Bradford method (Bradford, 1976, Anal. Biochem. 72: 248-254) with gamma-globulin as protein concentration standard. Immunoprecipitation and immunoblot assays were performed as previously described by Abella et al. (2004, Id.) with the use of a monoclonal antiphosphotyrosine antibody for the immunoprecipitation and an anti-insulin receptor antibody for immunoblotting, respectively. SDS-polyacrylamide gel electrophoresis was performed on membrane proteins following conventional procedures. Proteins were transferred to Immobilon and immunoblotting was performed as reported by Castello et al. (1994, J. Biol. Chem. 269: 5905-5912).
# The mechanism of action of B6V10 was investigated in isolated rat adipocytes. Adipose cells from Wistar rats were incubated for different times in the presence of 25 μM hexaquis(benzylammonium) decavanadate (B6V10). Cells were also incubated in the presence of insulin (100 nM, 45 min), decavanadate (25 μM, 45 min) or semicarbazide (1 mM, 45 min). Subsequently, 2-deoxyglucose uptake (results shown in FIG. 7A), tyrosine phosphorylation of insulin receptor (FIG. 7B), phospho-Thr^308-protein kinase B (FIG. 7C) and phospho-Ser^473-protein kinase B (FIG. 7D) was measured. […] The phosphorylation of protein kinase B induced by B6V10 was parallel to activation of glucose transport (FIG. 7C and 7D).
# as §1
# [6] = test system: insulin receptor; experiment: Tyrosine phosphorylation of insulin receptor in isolated rat adipocytes; format: cell-based; conditions: 25 μM
# Method: as §2
# The mechanism of action of B6V10 was investigated in isolated rat adipocytes. Adipose cells from Wistar rats were incubated for different times in the presence of 25 μM hexaquis(benzylammonium) decavanadate (B6V10). […] Subsequently, 2-deoxyglucose uptake (results shown in FIG. 7A), tyrosine phosphorylation of insulin receptor (FIG. 7B), phospho-Thr^308-protein kinase B (FIG. 7C) and phospho-Ser^473-protein kinase B (FIG. 7D) was measured. […]
# [7] = test system: mice made glucose intolerant by a high fat diet; experiment: Glucose tolerance and plasma insulin in high-fat fed mice, acute administration; format: in vivo, mouse; conditions: dihydrate
# Method: Male Wistar rats weighting 180-220 g were purchased from Harlan (Interfauna Ibèrica S.A., Spain). Diabetes was induced by a single intraperitoneal injection of a freshly prepared solution of streptozotocin (in some studies the dose was 45 mg/kg body weight and in some others 100 mg/kg body weight dissolved in 50 mM citrate buffer, pH 4.5). Only diabetic animals with glycemia above 300 mg/dl were used. The animals were housed in animal quarters at 22° C., with a 12 h light/12 h dark cycle and were fed ad libitum. All procedures used were approved by the animal ethical committee of the University of Barcelona, Spain. […]
# In glucose tolerance tests and in chronic treatments, circulating glucose concentrations were determined by a rapid glucose analyser (Accutrend® Sensor Comfort, Roche, Basel. Switzerland). Plasma insulin (IRI) concentration was determined by ELISA method using a kit obtained from Crystal Chem Inc. (Downers Grove, Ill.). Plasma triglycerides (Biosystems, Barcelona, Spain) and NEFAS (Wako Chemicals, Neuss, Germany) were determined with standard […] methods.
# Insulin and glucose responses during the glucose tolerance test were calculated as the incremental plasma values integrated over a period of 120 min after injection of glucose. […] Data distribution was analyzed by the Kolmogorov-Smirnov test. […]
# [8] = isolated rat adipocytes, listed as hexaquis(benzylammonium) decavanadate
# [9] = isolated rat adipocytes, FIG. 1
substance,measurement,setting,value
hexaquis(benzylammonium) decavanadate (V) dihydrate [Entry B6V10],stimulation of glucose transport (% increase),[1],93%
same,stimulation of glucose transport at 25 μM compared with the combination of benzylamine and vanadate,"[2]; 25 μM vs 100 μM benzylamine and 100 μM vanadate, rat adipocytes",greater stimulation of glucose transport than the combination of 100 μM benzylamine and 100 μM vanadate
same,stimulation of glucose transport in the presence of semicarbazide,[2]; isolated rat adipocytes,completely blocked by semicarbazide; also recorded: blocked in the presence of semicarbazide
same,stimulation of glucose transport in the presence of semicarbazide,[2]; [8],completely blocked by semicarbazide; also recorded: this effect was inhibited
same,stimulation of glucose transport (2-DG uptake),[2]; isolated rat adipocytes,stimulated glucose transport in rat adipocytes in a concentration-dependent manner
same,stimulation of glucose transport (2-DG uptake),[2]; [8],pronounced stimulation on glucose transport
same,concentration from which stimulation of glucose transport was perceptible,[2]; [9],≥ 0.5 µM
same,concentration of maximal effect on glucose transport,[2]; [9],2.5 µM
same,EC50,"[2]; isolated rat adipocytes, FIG. 1, read-out: concentration of semi-maximal effect on glucose transport",> 1000 nM
same,maximum effect on glucose transport compared with benzylamine and vanadate in combination,"[2]; isolated rat adipocytes, combination 100 μM sodium vanadate and 100 μM benzylamine (FIG. 1)",greater than that produced by the presence of benzylamine and vanadate in combination
same,maximal effect on glucose transport as % of the maximal stimulation caused by insulin,"[2]; rat adipocytes, 100 nM insulin",85%
same,glycemia,[3],ameliorated glycemia
same,adipocyte lipolysis,[4],inhibited adipocyte lipolysis
same,protein kinase B phosphorylation,"[5]; 25 μM, rat adipocytes",rapidly stimulated protein kinase B
same,time at which protein kinase B phosphorylation was detectable,"[5]; 25 μM, rat adipocytes",≤ 2.5 min
same,protein kinase B phosphorylation in the presence of semicarbazide,"[5]; B6V10 25 μM, semicarbazide 1 mM, 45 min",blocked by semicarbazide
same,tyrosine phosphorylation of insulin receptors,[6],undetectable
same,glucose tolerance and plasma insulin levels,[7],ameliorated the pattern of plasma insulin levels; also recorded: amelioration of glucose tolerance and improved plasma insulin levels
